Ends that are not written are not given here.
Key:
[1] = test system: Human red blood cells (RBCs); assay: Hemolytic activity; format: cell-based; settings: at 100 μg/ml, Tables 22-23
[2] = test system: Escherichia coli ATCC 25922; settings: Tables 22-23
Description: (§1) Escherichia coli ATCC 25922 and P. aeruginosa ATCC 27853 were used as Gram-negative (-) and Staphylococcus aureus ATCC 29213 as Gram-positive (+) bacteria. Bacteria were grown overnight at 37° C. in Mueller-Hinton (MH) broth. This culture was reinoculated and incubated at 37° C. to reach the exponential phase of bacteria growth, i.e., a final bacterial suspension containing 10^5 to 5×10^5 colony-forming units (CFU)/ml. The concentration of cells was established by plating 100 μl of different dilutions of the culture solution (e.g., 10^-2, 10^-3 and 10^-4) onto solid agar plates.
(§2) Following an overnight incubation at 37° C., the CFU thus formed were counted on each agar plate. In 96-well tissue culture plates, as control blanks, eight wells per plate contained only medium, while as a positive growth control, eight other wells contained medium plus cells.
(§3) The plates were incubated overnight at 37° C., and the optical density (OD) determined at 620 nm after different times of incubation.

[3] = test system: Staphylococcus aureus ATCC 29213; settings: Tables 22-23
Description: as §1, §2, §3

[4] = test system: Streptococcus sanguis ATCC 10556; settings: Tables 22-23
Description: Streptococcus sanguis ATCC 10556 (Gram-positive (+) bacteria present in tooth crevices) was grown overnight at 37° C. in Brain Heart Infusion (BHI) broth. This culture was reinoculated and incubated at 37° C. to reach the exponential phase of bacteria growth, i.e., a final bacterial suspension containing 10^5 to 5×10^5 colony-forming units (CFU)/ml. The concentration of cells was established by plating 100 μl of different dilutions of the culture solution (e.g., 10^-2, 10^-4) and 10^-4) onto solid agar plates. Following an overnight incubation at 37° C., the CFU thus formed were counted on each agar plate. In 96-well tissue culture plates, as control blanks, eight wells per plate contained only medium, while as a positive growth control, eight other wells contained medium plus cells. […] The plates were incubated overnight at 37° C., and the optical density (OD) determined at 620 nm after 20 to 24 hours incubation.

[5] = test system: Candida albicans ATCC 10231; settings: Tables 22-23
[6] = test system: P. aeruginosa ATCC 27853; assay: Antimicrobial assay, P. aeruginosa; settings: Tables 22-23
Description: as §1, §2, §3

Substance	% hemolysis at 100 μg/ml [1] [%]	IC50 (μg/ml) against E. coli [2] [µg/mL]	IC50 (μg/ml) against S. aureus [3] [µg/mL]	IC50 (μg/ml) against S. sanguis [4] [µg/mL]	IC50 (μg/ml) against C. albicans [5] [µg/mL]	IC50 (μg/ml) against P. aeruginosa [6] [µg/mL]
Ac-RRWWCI-NH2 [Ac-RRWWCI-NH2]	8.3	29 to 33	12 to 18	17 to 18	93 to 102	40 to 70
Ac-RRWWCK-NH2 [Ac-RRWWCK-NH2]	0.5	17 to 21	17 to 18	38 to 42	100 to 110	150
Ac-RRWWCM-NH2 [Ac-RRWWCM-NH2]	15	23 to 27	13 to 20	13 to 22	96 to 112	93 to 103
Ac-RRWWCN-NH2 [Ac-RRWWCN-NH2]	0.1	40 to 55	98 to 125	230	222 to 227	120
Ac-RRWWCP-NH2 [Ac-RRWWCP-NH2]	0.0	19 to 27	49 to 50	190	217 to 222	200
Ac-RRWWCQ-NH2 [Ac-RRWWCQ-NH2]	0.0	41 to 42	52 to 98	230	223 to 230	60 to 65
Ac-RRWWCR-NH2 [Ac-RRWWCR-NH2]	0.0	12 to 18	11 to 12	22 to 45	100 to 101	87 to 130
Ac-RRWWCS-NH2 [Ac-RRWWCS-NH2]	1.8	20 to 21	41 to 44	54 to 59	211 to 213	290
Ac-RRWWCT-NH2 [Ac-RRWWCT-NH2]	0.5	24 to 28	38 to 47	56 to 61	216 to 223	180
Ac-RRWWCV-NH2 [Ac-RRWWCV-NH2]	0.0	17 to 18	19 to 21	41 to 46	103 to 174	33 to 44
Ac-RRWWCW-NH2 [Ac-RRWWCW-NH2]	14	58 to 61	41 to 43	55 to 78	151 to 166	60 to 88
Ac-RRWWCY-NH2 [Ac-RRWWCY-NH2]	5.8	20 to 21	12 to 28	59 to 60	184 to 212	97 to 110
Cecropin A (KWKLFKKIEKVGQNIRDGIIKAGPAVAVVGQATQIAK; ends and bridges not checked; UniProt P01507 27-63, looked up) [reference compound]	0.0	1 to 2	> 500	337 to 400	81 to 88	5 to 6

Reference: patent US5440016A, “Peptides of the formula (KFmoc) ZZZ and their uses” (priority 1993, dated 1995)
